From the NIST ThermoML archive (doi:10.1016/j.jct.2006.12.013)
Numbers after ± are expanded uncertainties.

Conditions: Liquid

In the case of `CC(F)F` [1,1-difluoroethane], the “vapor or sublimation pressure” value (313.15 K) is reported as 909 ± 6 kPa, the “vapor or sublimation pressure” value (323.15 K) is reported as 1181 ± 7 kPa and the “vapor or sublimation pressure” value (333.15 K) is reported as 1509 ± 10 kPa. For the same compound, the “vapor or sublimation pressure” value (343.15 K) was 1898 ± 12 kPa and the “vapor or sublimation pressure” value (363.15 K) was 2901 ± 18 kPa.
For `CCCC` [butane], the “vapor or sublimation pressure” value (313.15 K) was 377 ± 3 kPa, the “vapor or sublimation pressure” value (323.15 K) was 495 ± 4 kPa and the “vapor or sublimation pressure” value (333.15 K) was 638 ± 4 kPa. For the same compound, the “vapor or sublimation pressure” value (343.15 K) was 810 ± 5 kPa, the “vapor or sublimation pressure” value (353.15 K) was 1012 ± 6 kPa and the “vapor or sublimation pressure” value (363.15 K) was 1249 ± 8 kPa.
